According to patent US4102886A, “Process for the preparation of benzo(a)quinolizidine derivatives” (priority 1974, dated 1978):
Where two headings read alike, the source gives them in different places.

Experiments:
kaolin-induced oedema = assay: Inhibition of kaolin-induced oedema; type: in vivo; settings: 2 hours
Description: (§1) Inhibition of Kaolin- and carrageenin-induced oedema
(§2) The tests were carried out on groups each consisting of at least 10 animals. The percentage inhibition of oedema, in relation to the untreated controls, was determined for each of the animals, and the average values were calculated.

[1] = Inhibition of kaolin-induced oedema; type: in vivo; settings: in vivo; LD50/ED50; read-out: Therapeutical index LD50/ED50, kaolin-oedema
Description: as §1, §2

[2] = Determination of ulcer index
[3] = system: carrageenin-induced oedema; assay: Inhibition of carrageenin-induced oedema; type: in vivo; settings: 1.5 hours
Description: as §1, §2

[4] = Inhibition of carrageenin-induced oedema; type: in vivo; settings: in vivo; LD50/ED50; read-out: Therapeutical index LD50/ED50, carrageenin-oedema
Description: as §1, §2

[5] = system: serotonine-induced oedema; assay: Tests performed on serotonine-induced oedema; type: in vivo
Description: Tests performed on serotonine-induced oedema
The tests were carried out on groups each consisting of 10 animals. The percentage inhibition of oedema, in relation to the untreated controls, was determined for each of the animals. The data listed in Table 3 are the averages of the inhibition values.

[6] = Analgesic effect by the hot-plate test; type: in vivo; settings: 50 mg./kg. p.o.
rats = assay: Acute toxicity tests; type: in vivo; settings: p.o., Litchfield-Wildoxon method
Description: (§3) The acute toxicity values of the compounds were determined on rats, after oral administration. The LD50 values were calculated according to the Litchfield-Wildoxon method.

[7] = Analgesic effect by the writhing test; type: in vivo
[8] = system: experimentally provoked fever; assay: Antipyretic activity (experimentally provoked fever); type: in vivo; set-up: unit not given here
Excerpt: Besides their antiphlogistic activities, some of the benzo(a)quinolizidine derivatives exert antipyretic effects as well. On the basis of the tests performed on experimentally provoked fever, the antipyretic activities of the compounds according to the invention surpass the effect of amidazophenum.

[9] = in vivo
Cotton granuloma = Cotton granuloma test; type: in vivo; settings: 50 mg./kg.
Acute toxicity tests = type: in vivo; settings: rat, in vivo, po; rats, Litchfield-Wildoxon method
Description: as §3

central nervious system = assay: Narcosis potentiating effect; type: in vivo
[10] = Toxicity tests performed with compound SC-118; type: in vivo; settings: rat, in vivo, CFY rats
Description: (§4) In order to give a more detailed information, in the following there are given the results of the toxicity tests performed with compound SC-118. The tests were carried out on CFY rats, each weighing 150 to 200 g.

CFY rats = assay: Toxicity tests performed with compound SC-118; type: in vivo
Description: as §4

[11] = 25 mg./kg. p.o., 1 hour after administration
[12] = 25 mg./kg. p.o., 2 hours after administration
[13] = 25 mg./kg. p.o., 3 hours after administration
[14] = 50 mg./kg. p.o., 1 hour after administration
[15] = 50 mg./kg. p.o., 2 hours after administration
[16] = 50 mg./kg. p.o., 3 hours after administration

## COc1ccc2c(c1)c(CC(=O)O)c(C)n2C(=O)c1ccc(Cl)cc1 [Indomethacine, reference compound]
kaolin-induced oedema; 10 mg./kg. p.o.
  Inhibition of kaolin-induced oedema 2 hours after administration: 27.2%
[1]
  selectivity ratio: 2.3
[2]; female
  Erosion: 1/10
  Ulcer: 3/10
[2]; in words
  ulcerogeneous effect: marked ulcerogeneous effect
[2]; male
  Erosion: 1/10
  Ulcer: 3/10
[3]; 10 mg./kg. p.o.
  Inhibition of carrageenin-induced oedema 1.5 hours after administration: 26.7%
[4]
  selectivity ratio: 1.3
[5]; 25 mg./kg. p.o.
  Percentage inhibition 1 hour after administration (serotonine-induced oedema): 1.4%
[6]
  Prolongation of the reaction time, % (2 hours after administration): no evaluable effect can be
rats
  LD50: 12 mg/kg

## CCCCC1C(=O)N(c2ccccc2)N(c2ccccc2)C1=O [Phenylbutazone]
kaolin-induced oedema; 50 mg./kg. p.o.
  Inhibition of kaolin-induced oedema 2 hours after administration: 27.5%
[7]; 100 mg./kg. p.o.
  Activity, % (reduction of the number of writhings in relation to the controls): 17.6%
[8]; [11]
  Variation of body temperature: -0.82
[8]; [12]
  Variation of body temperature: -0.84
[8]; [13]
  Variation of body temperature: -0.73
[8]; [14]
  Variation of body temperature: -1.05
[8]; [15]
  Variation of body temperature: -1.07
[8]; [16]
  Variation of body temperature: -0.76
[3]; 50 mg./kg. p.o.
  Inhibition of carrageenin-induced oedema 1.5 hours after administration: 24.3%
[5]; 100 mg./kg. p.o.
  Percentage inhibition 1 hour after administration (serotonine-induced oedema): 10.2%
[9]
  Erosion: 0/10
[6]
  Prolongation of the reaction time, % (2 hours after administration): no evaluable effect can be
Cotton granuloma
  Effect, % (cotton granuloma test): 19.6%
Acute toxicity tests
  LD50: 1180 mg/kg

## N#CCCC1CN2CCc3cc4c(cc3C2CC1=O)OCO4 (stereo not drawn) [SC-118, 2-Oxo-3-(β-cyano-ethyl)-9,10-methylenedioxy-1,2,3,4,6,7-hexahydro-11bH-benzo(a)quinolisidine]
kaolin-induced oedema; 25 mg./kg. p.o.
  Inhibition of kaolin-induced oedema 2 hours after administration: 18.1%
kaolin-induced oedema; 50 mg./kg. p.o.
  Inhibition of kaolin-induced oedema 2 hours after administration: 27.5%
kaolin-induced oedema; 75 mg./kg. p.o.
  Inhibition of kaolin-induced oedema 2 hours after administration: 43.7%
kaolin-induced oedema; 100 mg./kg. p.o.
  Inhibition of kaolin-induced oedema 2 hours after administration: 53.4%
[1]
  selectivity ratio: 29.2
[7]; 50 mg./kg. p.o.
  Activity, % (reduction of the number of writhings in relation to the controls): 41.8%
[8]; [11]
  Variation of body temperature: -1.67
[8]; [12]
  Variation of body temperature: -1.81
[8]; [13]
  Variation of body temperature: -1.60
[8]; [14]
  Variation of body temperature: -2.75
[8]; [15]
  Variation of body temperature: -3.34
[8]; [16]
  Variation of body temperature: -4.03
Central nervious system; 25 mg./kg. p.o.
  Prolongation of the sleep period in relation to the untreated controls, %: 96.4%
Central nervious system; 50 mg./kg. p.o.
  Prolongation of the sleep period in relation to the untreated controls, %: 253.0%
[2]; female
  Erosion: 0/10
  Ulcer: 0/10
[2]; male
  Erosion: 0/10
  Ulcer: 0/10
[3]; 25 mg./kg. p.o.
  Inhibition of carrageenin-induced oedema 1.5 hours after administration: 22.0%
[3]; 50 mg./kg. p.o.
  Inhibition of carrageenin-induced oedema 1.5 hours after administration: 30.6%
[3]; 75 mg./kg. p.o.
  Inhibition of carrageenin-induced oedema 1.5 hours after administration: 47.7%
[3]; 100 mg./kg. p.o.
  Inhibition of carrageenin-induced oedema 1.5 hours after administration: 52.7%
[4]
  selectivity ratio: 22.6
[5]; 25 mg./kg. p.o.
  Percentage inhibition 1 hour after administration (serotonine-induced oedema): 28.5%
[5]; 50 mg./kg. p.o.
  Percentage inhibition 1 hour after administration (serotonine-induced oedema): 42.1%
[5]; 75 mg./kg. p.o.
  Percentage inhibition 1 hour after administration (serotonine-induced oedema): 48.7%
[6]
  Prolongation of the reaction time, % (2 hours after administration): 61.2%
Cotton granuloma
  Effect, % (cotton granuloma test): 26.4%
[10]; female, read-out: LD50, f
  LD50: 1400 mg/kg
[10]; male, read-out: LD50, m
  LD50: 1420 mg/kg
CFY rats; 750 mg./kg., 24 hours, female
  Dead animals/treated animals: 0/10
CFY rats; 750 mg./kg., 24 hours, male
  Dead animals/treated animals: 0/10
CFY rats; 750 mg./kg., 48 hours, female
  Dead animals/treated animals: 0/10
CFY rats; 750 mg./kg., 48 hours, male
  Dead animals/treated animals: 0/10
CFY rats; 750 mg./kg., 72 hours, female
  Dead animals/treated animals: 0/10
CFY rats; 750 mg./kg., 72 hours, male
  Dead animals/treated animals: 0/10
CFY rats; 1000 mg./kg., 24 hours, female
  Dead animals/treated animals: 2/10
CFY rats; 1000 mg./kg., 24 hours, male
  Dead animals/treated animals: 1/10
CFY rats; 1000 mg./kg., 48 hours, female
  Dead animals/treated animals: 2/10
CFY rats; 1000 mg./kg., 48 hours, male
  Dead animals/treated animals: 2/10
CFY rats; 1000 mg./kg., 72 hours, female
  Dead animals/treated animals: 2/10
CFY rats; 1000 mg./kg., 72 hours, male
  Dead animals/treated animals: 2/10
CFY rats; 1250 mg./kg., 24 hours, female
  Dead animals/treated animals: 3/10
CFY rats; 1250 mg./kg., 24 hours, male
  Dead animals/treated animals: 2/10
CFY rats; 1250 mg./kg., 48 hours, female
  Dead animals/treated animals: 3/10
CFY rats; 1250 mg./kg., 48 hours, male
  Dead animals/treated animals: 3/10
CFY rats; 1250 mg./kg., 72 hours, female
  Dead animals/treated animals: 3/10
CFY rats; 1250 mg./kg., 72 hours, male
  Dead animals/treated animals: 3/10
CFY rats; 1500 mg./kg., 24 hours, female
  Dead animals/treated animals: 6/10
CFY rats; 1500 mg./kg., 24 hours, male
  Dead animals/treated animals: 5/10
CFY rats; 1500 mg./kg., 48 hours, female
  Dead animals/treated animals: 6/10
CFY rats; 1500 mg./kg., 48 hours, male
  Dead animals/treated animals: 5/10
CFY rats; 1500 mg./kg., 72 hours, female
  Dead animals/treated animals: 6/10
CFY rats; 1500 mg./kg., 72 hours, male
  Dead animals/treated animals: 5/10
CFY rats; 1750 mg./kg., 24 hours, female
  Dead animals/treated animals: 6/10
CFY rats; 1750 mg./kg., 24 hours, male
  Dead animals/treated animals: 6/10
CFY rats; 1750 mg./kg., 48 hours, female
  Dead animals/treated animals: 8/10
CFY rats; 1750 mg./kg., 48 hours, male
  Dead animals/treated animals: 8/10
CFY rats; 1750 mg./kg., 72 hours, female
  Dead animals/treated animals: 8/10
CFY rats; 1750 mg./kg., 72 hours, male
  Dead animals/treated animals: 8/10
CFY rats; 2000 mg./kg., 24 hours, female
  Dead animals/treated animals: 10/10
CFY rats; 2000 mg./kg., 24 hours, male
  Dead animals/treated animals: 10/10
CFY rats; 2000 mg./kg., 48 hours, female
  Dead animals/treated animals: 10/10
CFY rats; 2000 mg./kg., 48 hours, male
  Dead animals/treated animals: 10/10
CFY rats; 2000 mg./kg., 72 hours, female
  Dead animals/treated animals: 10/10
CFY rats; 2000 mg./kg., 72 hours, male
  Dead animals/treated animals: 10/10
Acute toxicity tests
  LD50: 1410 mg/kg
